Measurements published in US6287792A, “Drug delivery of antisense oligonucleotides and peptides to tissues in vivo and to cells using avidin-biotin technology” (The Regents of the University of California, priority 1991, dated 2001).

Tested on: isolated bovine brain capillaries (uptake of avidin-biotin complex)
Test: uptake of the avidin-biotin complex by isolated bovine brain capillaries in vitro
Type: cell-based
Settings: 50 mM, 23° C., thirty minutes
Procedure: The in vitro studies were performed with isolated bovine brain capillaries used as an in vitro model of blood brain barrier (BBB) transport (16). […] The modest uptake of radioactivity in the presence of buffer alone represents uptake of [P^32 ] nucleotide or phosphate ion generated by capillary nuclease or phosphatase degradation of the antisense oligonucleotide. All incubations were performed at 23° C. for thirty minutes with brain capillary (about 100 μg protein per flask).

Q: Which “inhibition of the uptake of the avidin-biotin complex by brain capillaries” value does the source give for `CO[C@H]1O[C@H](CO)[C@@H](O)[C@H](O)[C@@H]1O` [α-methylmannoside] here?
A: The value was “no significant inhibition”.
